The values below come from ChEMBL document CHEMBL1126886, “Synthesis of 5-methyl-5-deaza nonclassical antifolates as inhibitors of dihydrofolate reductases and as potential antipneumocystis, antitoxoplasma, and antitumor agents” (J Med Chem, 1993).

In assay [1] the test system is ACHN. The experiment in a line: Inhibitory concentration required to decrease cell viability in cell growth culture against kidney cells ACHN. It is filed as functional, cell-based. To be noted: Homo sapiens.
The test system of assay [2] is CCRF-CEM. Nature of the assay: Inhibitory concentration required to decrease cell viability in cell growth culture against leukemia cells CCRF-CEM. It is filed as functional, cell-based. To be noted: Homo sapiens.
In assay [3] the target is T1, Dihydrofolate reductase (Lactobacillus casei, UniProt P00381). The experiment in a line: Inhibitory concentration against Lactobacillus casei dihydrofolate reductase. Further details: species or system Lacticaseibacillus casei; call rule not given here.
T1 sequence (P00381 whole entry): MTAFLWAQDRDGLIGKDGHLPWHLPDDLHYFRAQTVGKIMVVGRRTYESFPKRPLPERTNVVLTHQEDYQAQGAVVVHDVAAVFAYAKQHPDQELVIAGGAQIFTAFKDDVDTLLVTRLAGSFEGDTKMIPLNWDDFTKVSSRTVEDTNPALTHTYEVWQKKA
Assay [4] concerns HCT-116. Nature of the assay: Inhibitory concentration required to decrease cell viability in cell growth culture against colon carcinoma cells HCT116. It counts as functional, cell-based. To be noted: Homo sapiens.
In assay [5] the test system is MCF7S. The experiment in a line: Inhibitory concentration required to decrease cell viability in cell growth culture against breast carcinoma cells MCF-7. It counts as functional, cell-based. To be noted: Homo sapiens.
In assay [6] the test system is Pneumocystis carinii. The experiment in a line: Inhibitory concentration against Pneumocystis carinii cells in human embryonic lung fibrobalstic cell culture with MEM at 1 ug/mL. It counts as functional, organism-based.
For assay [7], the system named is Pneumocystis carinii. Nature of the assay: (§1) Inhibitory concentration against Pneumocystis carinii cells in human embryonic lung fibrobalstic cell culture with MEM at 10 ug/mL. It is filed as functional, organism-based.
Assay [8] can be described thus: Inhibitory concentration required to decrease cell viability in cell growth culture against melanoma SK5 MeI. It counts as functional. To be noted: Homo sapiens.
Assay [9] concerns Toxoplasma gondii. Nature of the assay: Inhibitory concentration of Toxoplasma gondii cells in human embryonic lung cells with minimum essential medium. It is filed as functional, organism-based.
In assay [10] the target is T2, Dihydrofolate reductase (Rattus norvegicus, UniProt Q920D2).
T2 sequence (Q920D2 whole entry): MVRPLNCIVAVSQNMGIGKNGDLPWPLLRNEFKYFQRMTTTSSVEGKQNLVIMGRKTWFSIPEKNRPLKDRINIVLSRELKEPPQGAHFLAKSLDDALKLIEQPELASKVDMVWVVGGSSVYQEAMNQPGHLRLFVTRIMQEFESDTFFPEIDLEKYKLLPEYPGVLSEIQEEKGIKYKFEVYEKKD
Description: Inhibition of rat liver dihydrofolate reductase

In assay [11] the target is T3, Bifunctional dihydrofolate reductase-thymidylate synthase (Toxoplasma gondii, UniProt Q07422).
T3 sequence (Q07422 whole entry): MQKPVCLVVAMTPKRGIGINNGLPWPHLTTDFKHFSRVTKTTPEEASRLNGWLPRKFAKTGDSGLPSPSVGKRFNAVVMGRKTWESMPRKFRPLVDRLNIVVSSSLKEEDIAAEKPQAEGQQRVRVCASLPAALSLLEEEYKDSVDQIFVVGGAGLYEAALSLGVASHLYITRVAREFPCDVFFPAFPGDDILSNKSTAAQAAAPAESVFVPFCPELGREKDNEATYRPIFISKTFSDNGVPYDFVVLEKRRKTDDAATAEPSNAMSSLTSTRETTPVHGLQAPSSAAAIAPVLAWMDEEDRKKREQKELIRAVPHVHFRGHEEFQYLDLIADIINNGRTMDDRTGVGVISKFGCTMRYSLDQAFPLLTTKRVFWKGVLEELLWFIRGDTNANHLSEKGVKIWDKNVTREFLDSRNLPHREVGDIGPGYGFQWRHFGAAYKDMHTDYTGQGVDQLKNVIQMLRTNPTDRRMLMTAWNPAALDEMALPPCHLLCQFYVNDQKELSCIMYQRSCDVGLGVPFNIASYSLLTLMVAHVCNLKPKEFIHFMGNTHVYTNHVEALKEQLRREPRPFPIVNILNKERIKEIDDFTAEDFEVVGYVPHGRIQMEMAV
The experiment in a line: Inhibition of Toxoplasma gondii dihydrofolate reductase.

In assay [12] the target is T2, Dihydrofolate reductase. Nature of the assay: Inhibitory concentration against rat liver dihydrofolate reductases.
Assay [13] concerns the target T4, Dihydrofolate reductase (Pneumocystis carinii, UniProt P16184).
T4 sequence (P16184 whole entry): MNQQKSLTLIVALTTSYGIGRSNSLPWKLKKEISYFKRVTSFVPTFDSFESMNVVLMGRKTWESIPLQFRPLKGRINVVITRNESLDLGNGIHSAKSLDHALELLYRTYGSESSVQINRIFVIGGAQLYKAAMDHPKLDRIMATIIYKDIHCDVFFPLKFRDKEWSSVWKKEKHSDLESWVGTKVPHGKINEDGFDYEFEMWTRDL
Description: Inhibition of Pneumocystis carinii dihydrofolate reductase

Assay [14] concerns Pneumocystis carinii. The experiment in a line: Inhibitory concentration against Pneumocystis carinii cells in human embryonic lung fibrobalstic cell culture with MEM at 50 ug/mL.
The test system of assay [15] is Pneumocystis carinii. The assay is described as §1.
Assay [16] deals with Pneumocystis carinii. The experiment in a line: microbe, parasite or virus in culture.
Description: Inhibitory concentration against Pneumocystis carinii cells in human embryonic lung fibrobalstic cell culture with MEM at 250 ug/mL
The target in assay [17] is T1, Dihydrofolate reductase. The experiment in a line: (§2) Inhibitory concentration against Lactobacillus casei. Set-up: species or system Lacticaseibacillus casei.
Assay [18] concerns Lacticaseibacillus casei. The assay is described as §2. It is filed as functional, organism-based.
Assay [19] concerns Toxoplasma gondii. Nature of the assay: Inhibitory concentration of Toxoplasma gondii cells in human embryonic lung cells with minimum essential medium; inactive. It is filed as functional, organism-based.

For orientation: IC50 means the concentration that gives 50% inhibition. As a reminder, the % inhibition is the drop in the measured response relative to a control, in per cent. High values mean a strong effect, low ones a weak effect. In the case of `COc1cc(N(C)Cc2cnc3nc(N)nc(N)c3c2C)cc(OC)c1OC`, the concentration for half-maximal inhibition (IC50) in assay [1] is more than 100 µM; in assay [2] it was 0.02 µM; in [3], 0.2 µM; in [4], 37.9 µM; in assay [5], more than 100 µM; in assay [8], more than 100 µM. In addition, the IC50 in [9] was 4.7 µM; in assay [10], 0.0076 µM. In addition, the values for the % inhibition in assay [6] and in assay [7] were 65% and 74%, respectively.
In assay [6], `COc1cc(NCc2cnc3nc(N)nc(N)c3c2C)cc(OC)c1OC.O=C(O)[C@H]1O[C@H](O)[C@H](O)[C@@H](O)[C@@H]1O` showed a % inhibition of 2%.
Consider `Cc1c(CN(C=O)c2ccc(Cl)c(Cl)c2)cnc2nc(N)nc(N)c12`, for which the IC50 in [1] came out at 91.4 µM; in assay [2], 0.21 µM; in assay [11], 0.083 µM; in [12], 0.14 µM; in [4], 16 µM; in assay [5], 106 µM. For the same molecule, the IC50 amounted to 25.1 µM in [8] and 0.51 µM in [13].
Regarding `COc1cc(NCC2CNc3nc(N)nc(N)c3C2C)cc(OC)c1OC` (stereo unspecified), the IC50 in [13] is more than 3.7 µM; in assay [10] it was 3.7 µM.
As a reminder, the inhibition is the share of the control response that was lost under treatment. Lower therefore signals a response near the control. Molecule `COc1cc(Cc2cnc(N)nc2N)cc(OC)c1OC` [TRIMETHOPRIM] returned an inhibition at 50 µg/mL in assay [14] of 84%.
`COc1cc(NCc2cnc3nc(N)nc(N)c3c2C)cc(OC)c1OC.O=C(O)[C@H]1OC(O)[C@H](O)[C@@H](O)[C@@H]1O` returned a % inhibition in assay [15] of 57%.
On to `COc1cc(Cc2cnc(N)nc2N)cc(OC)c1OC.Cc1cc(NS(=O)(=O)c2ccc(N)cc2)no1` [CO-TRIMOXAZOLE], for which the inhibition at 250 µg/mL in assay [16] is 84%.
As for `COc1cc(NCc2cnc3nc(N)nc(N)c3c2C)cc(OC)c1OC`, the IC50 is more than 100 µM in assay [1]; 0.13 µM in [2]; 0.022 µM in assay [3]; 71.7 µM in assay [4]; more than 100 µM in assay [5]; more than 100 µM in assay [8]. In addition, the IC50 was 23 µM in [9] and 0.0021 µM in assay [10]. Besides, the % inhibition worked out at 56% in [6] and 77% in assay [7].
On to `Cc1c(CN(C)c2cc(Cl)c(Cl)c(Cl)c2)cnc2nc(N)nc(N)c12`, for which the IC50 came out at 0.2 µM in assay [2]; 0.036 µM in assay [17]; 0.0381 µM in [11]; 18.2 µM in [5]; 0.105 µM in assay [13]; 0.0363 µM in assay [10].
In the case of `Cc1c(CNc2ccc(Cl)c(Cl)c2)cnc2nc(N)nc(N)c12`, the IC50 in assay [1] amounted to 22.9 µM; in assay [2], 0.1 µM; in [17], 0.86 µM; in [11], 0.028 µM; in assay [4], 28.6 µM; in assay [5], 94.5 µM. Also, the concentration for half-maximal inhibition (IC50) in [8] turned out to be 7.73 µM; in [13] it was 0.32 µM; in assay [10], 0.053 µM.
Consider `COc1cc(N(C=O)CC2=CNc3nc(N)nc(N)c3C2C)cc(OC)c1OC` (stereo unspecified), for which the IC50 in assay [13] and in assay [10] was more than 2.6 µM throughout.
On to `COc1cc(NCc2ccc3nc(N)nc(N)c3c2C)cc(OC)c1OC` [TRIMETREXATE], for which, in assay [18], 0.027 µM corresponded to half-maximal inhibition (IC50).
As for `COc1cc(N(C=O)Cc2cnc3nc(N)nc(N)c3c2C)cc(OC)c1OC`, the IC50 in [1] is more than 112 µM; in assay [2], 0.61 µM; in [11] it was 0.013 µM; in [4] it was more than 112 µM; in assay [5] it was more than 100 µM; in [8], more than 112 µM. Also, the figures for the IC50 entry in [19], in [13] and in assay [10] were “Not Active”, 0.55 µM and 0.11 µM, respectively.
Consider `COc1cc(N(C=O)CC2CNc3nc(N)nc(N)c3C2C)cc(OC)c1OC` (stereo unspecified), for which the IC50 in [13] and in [10] was more than 1.2 µM throughout.
Turning to `Cc1c(CN(C)c2ccc(Cl)c(Cl)c2)cnc2nc(N)nc(N)c12`, the IC50 in [1] turned out to be 70.2 µM; in [2], 0.01 µM; in assay [17], 0.96 µM; in assay [11], 0.027 µM; in assay [4], 5.3 µM; in assay [5], 9.6 µM. Moreover, the IC50 in [8] stood at 21.2 µM; in [13], 0.1 µM; in [10], 0.042 µM.
Regarding `Cc1c(CN(C=O)c2cc(Cl)c(Cl)c(Cl)c2)cnc2nc(N)nc(N)c12`, the IC50 in [2] is 0.03 µM; in assay [11], 0.094 µM; in assay [13], 0.52 µM; in [10], 0.25 µM.
For the molecule `Cc1c(CNc2cc(Cl)c(Cl)c(Cl)c2)cnc2nc(N)nc(N)c12`, the IC50 in assay [2] is 0.2 µM; in assay [11], 0.012 µM; in [5], more than 100 µM; in assay [13], 0.063 µM; in [10] it was 0.033 µM.
